Results from US20250109104A1, “SQUARAINE FLUOROPHORES” (The General Hospital Corporation, priority 2022, published 2025).

What was measured:
cancer = settings: in vivo; cited from earlier work
tumors = experiment: Intraoperative NIR imaging for fluorescence guided surgery (FGS) in tumor-bearing mice; type: in vivo
Protocol: FIG. 5 depicts intraoperative imaging of OCTL14 for fluorescence guided surgery (FGS). (a) FGS using the squaraine. Tumor-bearing mice were intravenously injected with 100 nmol of OCTL14. FGS was performed 6 h post-injection. The yellow circle indicates the lesions for which intraoperative image-guided surgeries were performed. The middle panels show the tumor locations before/after surgery and resected tumors of different sizes. Scale bars=1 cm. (b) Clinical impact of the use of OCTL14. The number of tumors detected using color images only was compared to those detected using NIR imaging by experienced surgeons.
Structure-inherent targeting: Squaraines are selectively taken up by cancer cells via organic cation transporters (OCTs), overexpressed by cancer cells (FIG. 4). This high affinity is mediated by the unique structure of the molecule. This was achieved this by introducing an asymmetric molecular conformation and surface charges. In this way, squaraines can be up-taken rapidly via transporter and selectively accumulate in cancer cells, not normal cells. In addition, we have shown that once they are taken up by cancer cells, squaraines can stay in lysosomes for hours for durable imaging. This feature is critical to have a clear contrast between cancerous and normal tissue for clear cancer imaging during surgery or medical procedures.

Row | Compound | blood half-life (cancer) | cancer targeting capability (cancer) | localization of cancer tissues (tumors; 6 h post-injection, 100 nmol intravenously, tumor-bearing mice) | resection of tumors under image guidance (tumors; FGS 6 h post-injection) | residual tumor after FGS (tumors; FGS 6 h post-injection)
1 | CC1(C)C(/C=C/C=C/C=C/C=C2\N(CCCCS(=O)(=O)O)c3ccc4ccccc4c3C2(C)C)=[N+](CCCCS(=O)(=O)[O-])c2ccc3ccccc3c21 [ICG, indocyanine green] | short blood half-life | no specific cancer targeting capability |  |  | 
2 | Br.C[N+]1=C(/C=C2\C(=O)C(/C=C3/N(CCC[N+](C)(C)C)c4ccc(F)cc4C3(C)C)=C2[O-])C(C)(C)c2ccccc21.[I-] [OCTL14, Mono ((Z)-2-((E)-(5-fluoro-3,3-dimethyl-1-(3-(trimethylammonio)propyl)indolin-2-ylidene)methyl)-3-oxo-4-((1,3,3-trimethyl-3H-indol-1-ium-2-yl)methylene)cyclobut-1-enolate) mono bromide monoiodide] |  |  | precise localization of cancer tissues | complete resection of tumors | no residual tumor
